Data on 26 compounds can be found in patent US20210278408A1, “METHODS OF TREATMENT OF CANCER WITH SUBSTITUTED PYRROLE AND PYRAZOLE COMPOUNDS AND DIAGNOSIS OF CANCERS SUSCEPTIBLE TO TREATMENT WITH SUBSTITUTED PYRROLE AND PYRAZOLE COMPOUNDS” (Bantam Pharmaceutical, LLC, priority 2018, published 2021).

Molecules are shown by their SMILES. Where a name gives a salt, the structure may show the parent alone.

For the first test, the system named is BJAB (malignant human B-cell-line). Kind of test: BJAB cell proliferation. More on the design: scale not given here. Particulars: BJAB (malignant human B-cell-line) cell proliferation, EC50. It counts as cell-based. An excerpt: In certain embodiments, the therapeutic compound is one of the compounds of the compound table below. […] In certain embodiments, the therapeutic compound is a compound having an activity as “A,” “B” or “C” in the table below. In certain embodiments, the therapeutic compound is a compound having an activity as “A” or “B” in the table below. In certain embodiments, the therapeutic compound is a compound having an activity as “A” in the table below.
In certain embodiments, the therapeutic compound is one of the compounds of the compound table below, optionally provided as a pharmaceutically-acceptable salt or N-oxide, and/or a solvate or hydrate. […] In certain embodiments, the therapeutic compound is a compound having an activity as “A,” “B” or “C” in the table below. In certain embodiments, the therapeutic compound is a compound having an activity as “A” or “B” in the table below. In certain embodiments, the therapeutic compound is a compound having an activity as “A” in the table below.
`Cc1cc(-c2cn(-c3nc(-c4ccc(Cl)c(Cl)c4)c(SC(C)C)s3)nc2C)cc(C)n1` [Compound B9, 4-(3,4-dichlorophenyl)-2-(4-(2,6-dimethylpyridin-4-yl)-3-methyl-1H-pyrazol-1-yl)-5-(isopropylthio)thiazole]: the BJAB entry was “A, C, L”.

The test is the same for the next values; noted with them: BJAB (malignant human B-cell-line) cell proliferation, EC50; read-out: BJAB.
In the case of `Cc1nn(-c2nc(-c3ccc(C(F)(F)F)cc3)c(CC(C)C)s2)c(C(=O)O)c1-c1cccc(F)c1` [Compound B22, 4-(3-fluorophenyl)-1-(5-isobutyl-4-(4-(trifluoromethyl)phenyl)thiazol-2-yl)-3-methyl-1H-pyrazole-5-carboxylic acid], the EC50 is less than 1 µM.
The same measure, in the same setting: as for `Cc1nn(-c2nc(N3CCN(C4CC4)CC3)c(SC(C)C)s2)c(C(=O)O)c1-c1cccc(F)c1` [Compound B25, 1-(4-(4-cyclopropylpiperazin-1-yl)-5-(isopropylthio)thiazol-2-yl)-4-(3-fluorophenyl)-3-methyl-1H-pyrazole-5-carboxylic acid], the figure is 5 to 10 µM; as for `Cc1nn(-c2nc(N3CCNCC3)c(SC(C)C)s2)c(C(=O)O)c1-c1cccc(F)c1` [Compound B35, 4-(3-fluorophenyl)-1-(5-(isopropylthio)-4-(piperazin-1-yl)thiazol-2-yl)-3-methyl-1H-pyrazole-5-carboxylic acid hydrochloric acid salt], greater than 20 µM; as for `CCN1CCN(c2nc(-n3nc(C)c(-c4cccc(F)c4)c3C(=O)O)sc2SC(C)C)CC1` [Compound B26, 1-(4-(4-ethylpiperazin-1-yl)-5-(isopropylthio)thiazol-2-yl)-4-(3-fluorophenyl)-3-methyl-1H-pyrazole-5-carboxylic acid], greater than 20 µM.
`Cc1nn(-c2nc(N3CCC(C(C)C)CC3)c(SC(C)C)s2)c(C(=O)O)c1-c1cccc(F)c1` [Compound B67, 4-(3-fluorophenyl)-1-(4-(4-isopropylpiperidin-1-yl)-5-(isopropylthio)thiazol-2-yl)-3-methyl-1H-pyrazole-5-carboxylic acid]: the EC50 was in the range of 1 to 5 µM.
On the same count and under the same terms, as for `COCCN(C)C(=O)c1ccc(-c2sc(-n3nc(C)c(-c4cccc(F)c4)c3C(=O)O)nc2-c2ccc(C(F)(F)F)cc2)cc1` [Compound B50, 4-(3-fluorophenyl)-1-(5-(4-((2-methoxyethyl)(methyl)carbamoyl)phenyl)-4-(4-(trifluoromethyl)phenyl)thiazol-2-yl)-3-methyl-1H-pyrazole-5-carboxylic acid], the figure is greater than 20 µM; as for `Cc1nn(-c2nc(-c3ccc(C(F)(F)F)cc3)c(CO)s2)c(C(=O)O)c1-c1cccc(F)c1` [Compound B60, 4-(3-fluorophenyl)-1-(5-(hydroxymethyl)-4-(4-(trifluoromethyl)phenyl)thiazol-2-yl)-3-methyl-1H-pyrazole-5-carboxylic acid], greater than 20 µM.
For the compound `COCCOCC(=O)Nc1ccc(-c2sc(-n3nc(C)c(-c4cccc(F)c4)c3C(=O)O)nc2-c2ccc(C(F)(F)F)cc2)cc1` [Compound B52, 4-(3-fluorophenyl)-1-(5-(4-(2-(2-methoxyethoxy)acetamido)phenyl)-4-(4-(trifluoromethyl)phenyl)thiazol-2-yl)-3-methyl-1H-pyrazole-5-carboxylic acid], the EC50 was in the range of 10 to 25 µM.
For the compound `COCCNC(=O)c1ccc(-c2sc(-n3nc(C)c(-c4cccc(F)c4)c3C(=O)O)nc2-c2ccc(C(F)(F)F)cc2)cc1` [Compound B49, 4-(3-fluorophenyl)-1-(5-(4-((2-methoxyethyl)carbamoyl)phenyl)-4-(4-(trifluoromethyl)phenyl)thiazol-2-yl)-3-methyl-1H-pyrazole-5-carboxylic acid], the EC50 was greater than 20 µM.
Turning to `Cc1nn(-c2nc(N3CCCCC3)c(SC(C)C)s2)c(C(=O)O)c1-c1cccc(F)c1` [Compound B11, 4-(3-fluorophenyl)-1-(5-(isopropylthio)-4-(piperidin-1-yl)thiazol-2-yl)-3-methyl-1H-pyrazole-5-carboxylic acid], the EC50 was 10 to 25 µM.
The same measure, in the same setting: as for `Cc1nn(-c2nc(N3CCC(C(F)(F)F)C3)c(SC(C)C)s2)c(C(=O)O)c1-c1cccc(F)c1` (centres unmarked) [Compound B34, 4-(3-fluorophenyl)-1-(5-(isopropylthio)-4-(3-(trifluoromethyl)pyrrolidin-1-yl)thiazol-2-yl)-3-methyl-1H-pyrazole-5-carboxylic acid], the figure is 1 to 5 µM.
Regarding `COC(=O)c1c(-c2cccc(F)c2)c(C)nn1-c1nc(C2=CCC(C(F)(F)F)CC2)c(SC(C)C)s1` (centres unmarked) [Compound B20, methyl 4-(3-fluorophenyl)-1-(5-(isopropylthio)-4-(4-(trifluoromethyl)cyclohex-1-en-1-yl)thiazol-2-yl)-3-methyl-1H-pyrazole-5-carboxylate], the EC50 is less than 1 µM.
Still for that read-out and setting: as for `COC1(C(F)(F)F)CCN(c2nc(-n3nc(C)c(-c4cccc(F)c4)c3C(=O)O)sc2SC(C)C)CC1` [Compound B42, 4-(3-fluorophenyl)-1-(5-(isopropylthio)-4-(4-methoxy-4-(trifluoromethyl)piperidin-1-yl)thiazol-2-yl)-3-methyl-1H-pyrazole-5-carboxylic acid], the figure is less than 1 µM; as for `Cc1nn(-c2nc(-c3ccc(C(F)(F)F)cc3)c(CCO)s2)c(C(=O)O)c1-c1cccc(F)c1` [Compound B64, 4-(3-fluorophenyl)-1-(5-(2-hydroxyethyl)-4-(4-(trifluoromethyl)phenyl)thiazol-2-yl)-3-methyl-1H-pyrazole-5-carboxylic acid], greater than 20 µM.
Regarding `Cc1nn(-c2nc(-c3ccc(C(F)(F)F)cc3)c(-c3ccc(C(F)(F)F)cc3)s2)cc1-c1cccc(F)c1` [Compound B39, 2-(4-(3-fluorophenyl)-3-methyl-1H-pyrazol-1-yl)-4,5-bis(4-(trifluoromethyl)phenyl)thiazole], the EC50 was greater than 20 µM.
As to `Cc1nn(-c2nc(N3CCC(C(C)(C)C)CC3)c(SC(C)C)s2)c(C(=O)O)c1-c1cccc(F)c1` [Compound B40, 1-(4-(4-(tert-butyl)piperidin-1-yl)-5-(isopropylthio)thiazol-2-yl)-4-(3-fluorophenyl)-3-methyl-1H-pyrazole-5-carboxylic acid], the EC50 was less than 1 µM.
Take `COCCOCC(=O)N(C)c1ccc(-c2sc(-n3nc(C)c(-c4cccc(F)c4)c3C(=O)O)nc2-c2ccc(C(F)(F)F)cc2)cc1` [Compound B56, 4-(3-fluorophenyl)-1-(5-(4-(2-(2-methoxyethoxy)-N-methylacetamido)phenyl)-4-(4-(trifluoromethyl)phenyl)thiazol-2-yl)-3-methyl-1H-pyrazole-5-carboxylic acid]: the EC50 is greater than 20 µM.
With `Cc1nn(-c2nc(N3CCC(C(F)(F)F)CC3)c(-c3ccc(C(F)(F)F)cc3)s2)c(C(=O)O)c1-c1cccc(F)c1` [Compound B61, 4-(3-fluorophenyl)-3-methyl-1-(5-(4-(trifluoromethyl)phenyl)-4-(4-(trifluoromethyl)piperidin-1-yl)thiazol-2-yl)-1H-pyrazole-5-carboxylic acid], the EC50 was less than 1 µM.
As to `Cc1nn(-c2nc(N3CCC(C)(C)CC3)c(SC(C)C)s2)c(C(=O)O)c1-c1cccc(F)c1` [Compound B32, 1-(4-(4,4-dimethylpiperidin-1-yl)-5-(isopropylthio)thiazol-2-yl)-4-(3-fluorophenyl)-3-methyl-1H-pyrazole-5-carboxylic acid], the EC50 was less than 1 µM.
As to `COCCN(C)C(=O)CCc1sc(-n2nc(C)c(-c3cccc(F)c3)c2C(=O)O)nc1-c1ccc(C(F)(F)F)cc1` [Compound B54, 4-(3-fluorophenyl)-1-(5-(3-((2-methoxyethyl)(methyl)amino)-3-oxopropyl)-4-(4-(trifluoromethyl)phenyl)thiazol-2-yl)-3-methyl-1H-pyrazole-5-carboxylic acid], the EC50 is greater than 20 µM.
Still for that read-out and setting: as for `Cc1nn(-c2nc(N3CCC(C(F)(F)F)CC3)c(SC(C)C)s2)c(C(=O)O)c1-c1cccc(F)c1` [Compound B12, 4-(3-fluorophenyl)-1-(5-(isopropylthio)-4-(4-(trifluoromethyl)piperidin-1-yl)thiazol-2-yl)-3-methyl-1H-pyrazole-5-carboxylic acid], the figure is less than 1 µM; as for `CC(C)Sc1sc(-n2nc(O)c(-c3cccc(F)c3)c2C(=O)O)nc1-c1ccc(C(F)(F)F)cc1` [Compound B15, 4-(3-fluorophenyl)-3-hydroxy-1-(5-(isopropylthio)-4-(4-(trifluoromethyl)phenyl)thiazol-2-yl)-1H-pyrazole-5-carboxylic acid], greater than 20 µM; as for `CNC(=O)CCc1sc(-n2nc(C)c(-c3cccc(F)c3)c2C(=O)O)nc1-c1ccc(C(F)(F)F)cc1` [Compound B47, 4-(3-fluorophenyl)-3-methyl-1-(5-(3-(methylamino)-3-oxopropyl)-4-(4-(trifluoromethyl)phenyl)thiazol-2-yl)-1H-pyrazole-5-carboxylic acid], greater than 20 µM.
For `Cc1nn(-c2nc(-c3ccc(Cl)c(C(=O)N4CCOCC4)c3)c(SC(C)C)s2)c(C(=O)O)c1-c1cccc(F)c1` [Compound B8, 1-(4-(4-chloro-3-(morpholine-4-carbonyl)phenyl)-5-(isopropylthio)thiazol-2-yl)-4-(3-fluorophenyl)-3-methyl-1H-pyrazole-5-carboxylic acid], the EC50 is greater than 40 µM.

Still in this test, the particulars now being: BJAB cell proliferation; read-out: EC50.
For the compound `Cc1nn(-c2nc(-c3ccc(Cl)c(Cl)c3)c(SC(C)C)s2)c(C(=O)O)c1Cc1ccccc1NS(=O)(=O)N(C)C` [Compound A122, 1-(4-(3,4-dichlorophenyl)-5-(isopropylthio)thiazol-2-yl)-4-(2-(N,N-dimethylsulfamoylamino)benzyl)-3-methyl-1H-pyrazole-5-carboxylic acid], the EC50 fell in the range of 10 to 25 µM.
